Values quoted from earlier work in patent US20050169988A1, “High molecular weight, lipophilic, orally ingestible bioactive agents in formulations having improved bioavailability” (Shaklee Corporation, priority 2001, published 2005).

- Solubility in water: practically insoluble in water
SMILES: COC1=C(OC)C(=O)C(C/C=C(\C)CC/C=C(\C)CC/C=C(\C)CC/C=C(\C)CC/C=C(\C)CC/C=C(\C)CC/C=C(\C)CC/C=C(\C)CC/C=C(\C)CCC=C(C)C)=C(C)C1=O [CoQ10, 2,3-dimethoxy-5-methyl-6-decaprenyl-1,4-benzoquinone]
